The subject of data set [1] is Myzus persicae. Briefly: Myzus persicae oral test. The note with it: after 5 days; for pest or weed control at 4 ppm / pest or weed control at 20 ppm: Myzus persicae, po, 120 h, read-out: efficacy. In kind it is in vivo. How it is done: Solvent: 100 parts by weight of acetone
To produce a suitable active compound formulation, 1 part by weight of active compound is dissolved with the stated parts by weight of solvent and made up to the desired concentration with water.
50 μl of the active compound formulation are transferred into microtitre plates and made up to a final volume of 200 μl with 150 μl of IPL41 insect medium (33%+15% sugar). Subsequently, the plates are sealed with parafilm, which a mixed population of green peach aphids (Myzus persicae) within a second microtitre plate is able to puncture and imbibe the solution.
(§1) After 5 days, the efficacy in % is determined. 100% means that all the aphids have been killed; 0% means that no aphids have been killed.

In data set [2] the test system is Diabrotica balteata. Nature of the data set: Diabrotica balteata spray test. Format: in vivo. The note with it: application rate 160 μg/well, beetle larvae on germinated wheat grains, after 7 days; for pest or weed control at 160 µg/disc, 160 µg/well: Diabrotica balteata, 168 h, read-out: efficacy. How it is done:
Diabrotica balteata—Spray Test
(§2) Solvent: 78 parts by weight of acetone • • 1.5 parts by weight of dimethylformamide
(§3) Emulsifier: alkylaryl polyglycol ether
(§4) To produce a suitable active compound formulation, 1 part by weight of active compound is dissolved with the specified parts by weight of solvent and made up to the desired concentration with water containing an emulsifier concentration of 1000 ppm. To produce further test concentrations, the formulation is diluted with emulsifier-containing water.
Pre-swollen wheat grains (Triticum aestivum) are incubated in a multiwell plate filled with agar and a little water for one day (5 seed grains per well). The germinated wheat grains are sprayed with an active compound preparation of the desired concentration. Subsequently, each cavity is infected with 10-20 beetle larvae of Diabrotica balteata.
After 7 days, the efficacy in % is determined. 100% means that all maize plants have grown as in the untreated, uninfected control; 0% means that no maize plant has grown.

Data set [3] is described as follows: log P by HPLC (EEC directive 79/831 Annex V.A8). In kind it is physicochemical. How it is done:
The log P values reported in the tables and preparation examples above were determined in accordance with EEC directive 79/831 Annex V.A8 by HPLC (High Performance Liquid Chromatography) using a reversed-phase column (C18). Temperature 43° C. The calibration is effected with unbranched alkan-2-ones (having 3 to 16 carbon atoms), for which the log P values are known.

In data set [4] the test system is Myzus persicae. Nature of the data set: Myzus persicae spray test. Format: in vivo. The note with it: application rate 500 g/ha, Chinese cabbage leaf discs, after 5 days; for pest or weed control at 500 g/ha: Myzus persicae, foliar, 120 h, read-out: efficacy. How it is done:
Myzus persicae—Spray Test
as §2, §3, §4
Discs of Chinese cabbage leaves (Brassica pekinensis) infested by all stages of the green peach aphid (Myzus persicae) are sprayed with an active compound formulation of the desired concentration.
as §1

Data set [5] relates to Spodoptera frugiperda. Briefly: Spodoptera frugiperda spray test. In kind it is in vivo. The note with it: application rate 500 g/ha; caterpillars on maize leaf discs; after 7 days. The protocol: Spodoptera frugiperda—Spray Test
(§5) Solvent: 78.0 parts by weight of acetone • • 1.5 parts by weight of dimethylformamide
as §3, §4
Leaf discs of maize (Zea mays) are sprayed with an active compound formulation of the desired concentration and, after drying, populated with caterpillars of the fall armyworm (Spodoptera frugiperda).
After 7 days, the efficacy in % is determined. 100% means that all the caterpillars have been killed; 0% means that no caterpillar has been killed.

The subject of data set [6] is Ctenocephalides felis. Nature of the data set: Ctenocephalides felis in vitro contact test with adult cat fleas. In kind it is in vivo. The note with it: application rate 5 μg/cm^2 (=500 g/ha), after 48 h. The protocol:
Ctenocephalides felis—In Vitro Contact Tests with Adult Cat Fleas
For the coating of the test tubes, 9 mg of active compound are first dissolved in 1 ml of acetone p.a. and then diluted to the desired concentration with acetone p.a. 250 μl of the solution are distributed homogeneously on the inner walls and the base of a 25 ml glass tube by turning and rocking on an orbital shaker (rocking rotation at 30 rpm for 2 h). With 900 ppm of active compound solution and internal surface area 44.7 cm^2, given homogeneous distribution, an area-based dose of 5 μg/cm^2 is achieved.
After the solvent has evaporated off, the tubes are populated with 5-10 adult cat fleas (Ctenocephalides felis), sealed with a perforated plastic lid and incubated in a horizontal position at room temperature and ambient humidity. After 48 h, efficacy is determined. To this end, the tubes are stood upright and the fleas are knocked to the base of the tube. Fleas which remain motionless at the base or move in an uncoordinated manner are considered to be dead or moribund.
100% efficacy means that all the fleas were dead or moribund. 0% efficacy means that no fleas were harmed.

For data set [7], the system named is Musca domestica. Nature of the data set: Musca domestica test. Format: in vivo. The note with it: application rate 100 ppm; adult houseflies; after 2 days. The protocol:
(§6) Solvent: dimethyl sulfoxide
(§7) To produce a suitable active compound formulation, 10 mg of active compound are mixed with 0.5 ml of dimethyl sulfoxide, and the concentrate is diluted with water to the desired concentration.
Vessels containing a sponge treated with sugar solution and the active compound formulation of the desired concentration are populated with 10 adult houseflies (Musca domestica).
After 2 days, the kill in % is determined. 100% means that all of the flies have been killed; 0% means that none of the flies have been killed.

Data set [8] has as its system Lucilia cuprina. Nature of the data set: Lucilia cuprina test. Format: in vivo. The note with it: application rate 100 ppm; L1 larvae; after 2 days. The protocol:
as §6, §7
About 20 L1 larvae of the Australian sheep blowfly (Lucilia cuprina) are transferred into a test vessel containing minced horsemeat and the active compound formulation of the desired concentration.
After 2 days, the kill in % is determined. 100% means that all the larvae have been killed; 0% means that no larvae have been killed.

Data set [9] has as its system Phaedon cochleariae. Briefly: Phaedon cochleariae spray test. Format: in vivo. The note with it: foliar, 168 h, application rate 500 g/ha, larvae on Chinese cabbage leaf discs, after 7 days, read-out: efficacy. How it is done: Phaedon cochleariae—Spray Test
as §5, §3, §4
Discs of Chinese cabbage leaves (Brassica pekinensis) are sprayed with an active compound formulation of the desired concentration and, after drying, populated with larvae of the mustard beetle (Phaedon cochleariae).
After 7 days, the efficacy in % is determined. 100% means that all the beetle larvae have been killed; 0% means that no beetle larvae have been killed.

Where two headings read alike, the source gives them in different places.

With `O=C(CCl)c1c([O-])[n+]2ccccc2n1Cc1cnc(Cl)s1` [Example I-005, 2-(2-Chloroacetyl)-1-[(2-chlorothiazol-5-yl)methyl]imidazo[1,2-a]pyridin-4-ium-3-olate], the pest or weed control at 4 ppm in data set [1] (application rate 4 ppm) was found to be 100%. Moreover, the pest or weed control at 20 ppm in [1] (application rate 20 ppm) was 100%. Besides, in [2], the pest or weed control at 160 µg/disc, 160 µg/well stood at 80%. The chromatographic logP in [3] amounted to 1.58.
On to `COCC(=O)c1c([O-])[n+]2ccccc2n1Cc1cnc(Cl)s1` [Example I-010, 1-[(2-Chlorothiazol-5-yl)methyl]-2-(2-methoxyacetyl)imidazo[1,2-a]pyridin-4-ium-3-olate], for which the pest or weed control at 4 ppm in data set [1] (application rate 4 ppm) turned out to be 100%. Moreover, the pest or weed control at 20 ppm in [1] (application rate 20 ppm) turned out to be 100%. The pest or weed control at 500 g/ha in [4] was determined as 100%. In addition, in data set [2], the pest or weed control at 160 µg/disc, 160 µg/well worked out at 100%. In addition, the chromatographic logP in data set [3] is 1.13.
With `O=C(c1c([O-])[n+]2ccccc2n1Cc1cnc(Cl)s1)C(Cl)(Cl)Cl` [Example I-011, 1-[(2-Chlorothiazol-5-yl)methyl]-2-(2,2,2-trichloroacetyl)imidazo[1,2-a]pyridin-4-ium-3-olate], the pest or weed control at 4 ppm in data set [1] (application rate 4 ppm) was 100%. In addition, the pest or weed control at 500 g/ha in [4] was 90%. The efficacy in [5] is 100%. In addition, the pest or weed control at 160 µg/disc, 160 µg/well in [2] worked out at 100%. Moreover, the chromatographic logP in data set [3] came out at 2.44.
As for `O=C(c1ccccc1)c1c([O-])[n+]2ccccc2n1Cc1cnc(Cl)s1` [Example I-013], the efficacy in [1] (application rate 4 ppm) was 100%; in data set [1] (application rate 20 ppm) it was 100%; in data set [4] it was 100%; in data set [6], 100%; in data set [2] it was 80%. Moreover, the “efficacy (kill in %)” value in data set [7] is 90%.
Consider `O=Cc1c([O-])[n+]2ccccc2n1Cc1cnc(Cl)s1` [Example I-015, 1-[(2-Chlorothiazol-5-yl)methyl]-2-formylimidazo[1,2-a]pyridin-4-ium-3-olate], for which the pest or weed control at 4 ppm in [1] (application rate 4 ppm) is 100%. In addition, the pest or weed control at 500 g/ha in data set [4] was 90%. The molecule also registered an efficacy in data set [6] of 100%. In data set [2], the pest or weed control at 160 µg/disc, 160 µg/well came out at 100%. This molecule yielded a chromatographic logP in [3] of 1.01.
For `CCNC(=O)c1c([O-])[n+]2ccccc2n1Cc1cnc(Cl)s1` [Example I-018], the efficacy in [1] (application rate 4 ppm), in data set [1] (application rate 20 ppm), in data set [4] and in data set [2] was 100% throughout. The “efficacy (kill in %)” value is recorded as 100% in [8] and 85% in data set [7].
Turning to `O=C(c1cccc(C(F)(F)F)c1)c1c([O-])[n+]2ccccc2n1Cc1cnc(Cl)s1` [Example I-023], the efficacy is recorded as 100% in data set [1] (application rate 4 ppm), 90% in data set [4] and 100% in [2]. Further, in data set [8], the “efficacy (kill in %)” value was 95%.
Regarding `CC(C)NC(=O)c1c([O-])[n+]2ccccc2n1Cc1cnc(Cl)s1` [Example I-025, 1-[(2-Chlorothiazol-5-yl)methyl]-2-(isopropylcarbamoyl)imidazo[1,2-a]pyridin-4-ium-3-olate], the pest or weed control at 4 ppm in data set [1] (application rate 4 ppm) worked out at 100%. For the same molecule, the “efficacy (kill in %)” value in data set [7] stood at 100%. The chromatographic logP in [3] stood at 1.66.
`O=C(c1cccs1)c1c([O-])[n+]2ccccc2n1Cc1cnc(Cl)s1` [Example I-026]: the efficacy in data set [1] (application rate 4 ppm) and in [2] was 100% each time. In addition, the “efficacy (kill in %)” value in data set [8] is listed as 100%.
In the case of `O=C(OCC1CC1)C(=O)c1c([O-])[n+]2ccccc2n1Cc1cnc(Cl)s1` [Example I-034, 1-[(2-chlorothiazol-5-yl)methyl]-2-[2-(cyclopropylmethoxy)-2-oxoacetyl]imidazo[1,2-a]pyridin-4-ium-3-olate], the pest or weed control at 4 ppm in data set [1] (application rate 4 ppm) is 100%. In [4], the pest or weed control at 500 g/ha amounted to 90%. Further, the “efficacy (kill in %)” value in data set [7] was found to be 100%. Also, the chromatographic logP in data set [3] (HPLC, reversed-phase column (C18), 43° C, acidic (HCOOH), read-out: log P (HCOOH)) came to 1.94.
For the molecule `O=C(OC1CCC1)C(=O)c1c([O-])[n+]2ccccc2n1Cc1cnc(Cl)s1` [Example I-035], the efficacy in [1] (application rate 4 ppm) and in data set [4] was 100% throughout. Also, in data set [7], the “efficacy (kill in %)” value is reported as 100%.
With `CC(=O)c1c([O-])[n+]2cccc(C)c2n1Cc1cnc(Cl)s1` [Example I-044], the pest or weed control at 4 ppm in data set [1] (application rate 4 ppm) worked out at 100%. Also, the pest or weed control at 500 g/ha stood at 100% in [4] and 83% in data set [9]. In addition, the pest or weed control at 160 µg/disc, 160 µg/well in data set [2] was 100%.
As for `COC(=O)C(=O)c1c([O-])[n+]2cccc(C)c2n1Cc1cnc(Cl)s1` [Example I-045], the pest or weed control at 4 ppm in [1] (application rate 4 ppm) was found to be 100%. Also, the pest or weed control at 500 g/ha in data set [4] and in [9] was 100% in each case. The “efficacy (kill in %)” value in data set [8] stood at 90%. For the same molecule, the pest or weed control at 160 µg/disc, 160 µg/well in data set [2] came to 100%.
For the molecule `CO/N=C/C(=O)c1c([O-])[n+]2ccccc2n1Cc1cnc(Cl)s1` [Example I-059, 1-[(2-chlorothiazol-5-yl)methyl]-2-[(2E)-2-methoxyiminoacetyl]imidazo[1,2-a]pyridin-4-ium-3-olate], the pest or weed control at 4 ppm in data set [1] (application rate 4 ppm) worked out at 100%. Further, the pest or weed control at 500 g/ha in data set [4] amounted to 70%. Also, the pest or weed control at 160 µg/disc, 160 µg/well in [2] amounted to 100%. Further, the chromatographic logP in data set [3] is 1.45.
Turning to `Cc1ccc[n+]2c([O-])c(C(=O)C(F)(F)Cl)n(Cc3cnc(Cl)s3)c12` [Example I-060], the pest or weed control at 500 g/ha in [9] was determined as 100%. The efficacy in data set [5] was determined as 100%.
For `Cc1ccc[n+]2c([O-])c(C(=O)C(F)F)n(Cc3cnc(Cl)s3)c12` [Example I-061], in data set [1] (application rate 4 ppm), the pest or weed control at 4 ppm worked out at 100%. Further, the pest or weed control at 500 g/ha in data set [9] worked out at 100%. The efficacy in [5] amounted to 100%.
Turning to `Cc1ccc[n+]2c([O-])c(C(=O)C(F)(F)C(F)(F)F)n(Cc3cnc(Cl)s3)c12` [Example I-062], the pest or weed control at 4 ppm in data set [1] (application rate 4 ppm) stood at 100%. The pest or weed control at 500 g/ha in data set [4] stood at 90%; in data set [9] it was 100%.
`Cc1ccc[n+]2c([O-])c(C(=O)C(=O)OC3CCC3)n(Cc3cnc(Cl)s3)c12` [Example I-065]: the pest or weed control at 4 ppm in data set [1] (application rate 4 ppm) was 100%. In addition, the pest or weed control at 500 g/ha in [4] came out at 90%; in data set [9], 100%.

These data come from patent publication US20200037600A1, “MESOIONIC IMIDAZOPYRIDINES AS INSECTICIDES” (Bayer Aktiengesellschaft, priority 2017, published 2020).
